Measurements from patent US20110028715A1, “NOVEL ADENINE COMPOUND” (priority 2007, published 2011).
Like-named read-outs stand apart in the source and are kept apart here. Marks after values point to notes of the source that are not given here.

Tests used:
[1] = test system: IFN-α; experiment: IFN-α production inducing activity in mice (plasma IFN-α by L929/2-5AS-Luc bioassay); assay type: in vivo, B6C3F1 mice; settings: 3 hours after 1 mg/kg intravenously via tail vein, mean ± standard deviation (n = 3)
Protocol: A test compound was administered to B6C3F1 mice (Charles River Japan, Inc.) via tail vein at the dose of 1 mg/kg intravenously. After 3 hours, total blood was collected into a sample tube containing heparin. Plasma was prepared from total blood after centrifugation (3,000 rpm, 10 min, at room temperature) and stored at −20° C.
Murine fibroblasts (L929/2-5AS-Luc), which constitutively expressed luciferase gene in which the promoter region for 2′-5′-oligoadenylate synthase was cloned, was seeded into 96-well plate at 4×10^4 cells/well, and cultured for overnight with diluted plasma or mouse IFN-α. After Luclite (Perkin Elmer) was added to the plate, the luciferase activity was measured with TopCount (Perkin Elmer).
The concentration of IFN-α in plasma was calculated by linear regression of logarithmic transformed concentration of mouse IFN-α and the luciferase activity.

[2] = target: T1, human TLR7 (Homo sapiens, UniProt Q9NYK1); experiment: Human TLR7 reporter assay (NF-kB-SEAP, HEK 293 cells); assay type: cell-based; settings: read-out: human TLR7 binding activity EC50
T1 construct: expressed in transfected cells; host or cells: HEK 293 (hTLR7/seap-293)
T1 sequence (Q9NYK1 27-1049): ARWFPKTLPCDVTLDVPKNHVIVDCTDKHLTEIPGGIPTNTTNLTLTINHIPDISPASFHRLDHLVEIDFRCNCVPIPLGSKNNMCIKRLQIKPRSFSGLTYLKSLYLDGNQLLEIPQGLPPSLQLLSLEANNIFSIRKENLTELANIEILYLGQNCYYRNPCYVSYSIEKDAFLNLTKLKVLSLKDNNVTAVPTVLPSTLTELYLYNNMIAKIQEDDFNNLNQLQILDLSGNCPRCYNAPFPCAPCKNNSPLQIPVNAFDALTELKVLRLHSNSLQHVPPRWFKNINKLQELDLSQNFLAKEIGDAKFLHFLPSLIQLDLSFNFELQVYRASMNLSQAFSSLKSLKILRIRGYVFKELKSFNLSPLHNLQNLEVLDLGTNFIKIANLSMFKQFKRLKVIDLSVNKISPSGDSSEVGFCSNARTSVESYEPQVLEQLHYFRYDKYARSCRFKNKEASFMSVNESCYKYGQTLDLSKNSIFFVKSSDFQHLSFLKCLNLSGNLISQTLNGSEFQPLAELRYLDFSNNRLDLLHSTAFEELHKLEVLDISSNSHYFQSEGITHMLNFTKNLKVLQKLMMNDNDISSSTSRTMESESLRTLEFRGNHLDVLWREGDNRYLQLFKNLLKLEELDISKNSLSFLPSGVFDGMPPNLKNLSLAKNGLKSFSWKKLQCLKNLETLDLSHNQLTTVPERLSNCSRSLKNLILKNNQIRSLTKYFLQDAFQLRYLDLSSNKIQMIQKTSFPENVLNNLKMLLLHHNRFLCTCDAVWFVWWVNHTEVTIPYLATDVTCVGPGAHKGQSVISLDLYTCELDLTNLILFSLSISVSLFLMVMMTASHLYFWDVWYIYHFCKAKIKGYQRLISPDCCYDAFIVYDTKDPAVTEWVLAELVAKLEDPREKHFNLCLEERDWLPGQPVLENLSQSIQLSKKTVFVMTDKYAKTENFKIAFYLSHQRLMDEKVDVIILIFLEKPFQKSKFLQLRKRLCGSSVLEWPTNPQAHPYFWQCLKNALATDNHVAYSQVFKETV
Protocol: HEK 293 cells, to which human TLR7 or rat TLR7 plasmid and reporter plasmid (NF-kB-SEAP) were stably introduced, were suspended in DMEM medium (10% FBS, 1% NEAA, 10 ug/mL blastocidin S HCl, 100 ug/mL Zeocin), and seeded into a 96-well plate in an amount of 90 μl/well (hTLR7/seap-293: 20,000 cells/well, rTLR7/seap-293: 25,000 cells/well).
A test compound (DMSO stock solution (2 μl) was diluted into 100-fold with the medium (200 μl)) was added into the cells seeded in the 96-well plate in an amount of 10 μl/well (final concentration: 1 nM to 10 μM, common ratio: 3). The side of the plate was lightly patted for stiffing the content of the plate, and the plate was incubated for 20 hours in a CO2 incubator. To the cells that were stimulated with a test compound was added a substrate for reporter assay (substrate for SEAP, pNPP) in an amount of 50 μl/well. The minute later after the addition of the substrate, the solution for reaction quenching (4N NaOH) was added to the plate in an amount of ? 50 μl/well in order to quench the enzyme reaction. A top seal A was applied to the plate, and the absorbance at 405 nm was measured by a microplate reader.
In a similar manner to Example 85, the following compounds were tested.

[3] = Table 1, HEK 293 hTLR7/NF-kB-SEAP reporter, 20 hours incubation
[4] = Table 6, tested in a similar manner to Example 85

Structure (SMILES) | EC50 [2, 3] [nM] | EC50 [2, 4] [nM] | also measured
COCCOc1nc(N)c2[nH]c(=O)n(Cc3ccc(N4CCN(C)CC4)nc3)c2n1 [Example 42, 6-Amino-2-(2-methoxyethoxy)-9-[6-(4-methylpiperazin-1-yl)pyridin-3-ylmethyl]-7,9-dihydropurin-8-one] | – | – | Mouse IFN-α [1]: 30.0 ± 7.3 IU/mL
CCCCOc1nc(N)c2[nH]c(=O)n(Cc3ccc(OCCCN(C)C)cc3)c2n1 [Example 37, 6-Amino-2-butoxy-9-[4-(3-dimethylaminopropoxy)benzyl]-7,9-dihydropurin-8-one] | 1.1 | – | –
COCCOc1nc(N)c2[nH]c(=O)n(Cc3ccc(OCC(C)(C)CN(C)C)nc3)c2n1 [Example 110, 6-Amino-9-[6-(3-dimethylamino-2,2-dimethylpropoxy)pyridin-3-ylmethyl]-2-(2-methoxyethoxy)-7,9-dihydropurin-8-one] | – | 16.5 | –
CCCCOc1nc(N)c2nc(O)n(Cc3ccc(CN4CCOCC4)cc3)c2n1 [Example 1, 6-Amino-2-butoxy-9-(4-morpholin-4-ylmethylbenzyl)-7,9-dihydropurin-8-one] | 7.2 | – | –
COCCOc1nc(N)c2[nH]c(=O)n(Cc3cnc(OCC(C)(C)CN(C)C)c(Cl)c3)c2n1 [Example 120, 6-Amino-9-[5-chloro-6-(3-dimethylamino-2,2-dimethylpropoxy)pyridin-3-ylmethyl]-2-(2-methoxyethoxy)-7,9-dihydropurin-8-one] | – | 3.7 | –
COCCOc1nc(N)c2[nH]c(=O)n(Cc3ccc(CN4CCCCC4)cc3)c2n1 [Example 10, 6-Amino-2-(2-methoxyethoxy)-9-(4-piperidin-1-ylmethylbenzyl)-7,9-dihydropurin-8-one] | – | – | Mouse IFN-α [1]: 7.3 ± 1.6 IU/mL
CCCCOc1nc(N)c2[nH]c(=O)n(Cc3ccc(CN4CCN(C(=O)CN(C)C)CC4)cc3)c2n1 [Example 94, 6-Amino-2-butoxy-9-{4-[4-(2-dimethylaminoacetyl)piperazin-1-ylmethyl]benzyl}-7,9-dihydropurin-8-one] | – | 2.5 | –
COCCOc1nc(N)c2[nH]c(=O)n(Cc3cnc(OCCN(C)C)c(Cl)c3)c2n1 [Example 118, 6-Amino-9-[5-chloro-6-(2-dimethylaminoethoxy)pyridin-3-ylmethyl]-2-(2-methoxyethoxy)-7,9-dihydropurin-8-one] | – | 14 | –
CCOc1nc(N)c2[nH]c(=O)n(Cc3ccc(CN4CCOCC4)cc3)c2n1 [Example 68, 6-Amino-2-ethoxy-9-(4-morpholin-4-ylmethylbenzyl)-7,9-dihydropurin-8-one] | 5.5 | – | –
COCCOc1nc(N)c2[nH]c(=O)n(Cc3ccc(CN4CCC(Oc5ccccc5)CC4)cc3)c2n1 [Example 13, 6-Amino-2-(2-methoxyethoxy)-9-[4-(4-phenoxypiperidin-1-ylmethyl)benzyl]-7,9-dihydropurin-8-one] | 18.7 | – | –
CCCCOc1nc(N)c2[nH]c(=O)n(Cc3ccc(CN4CCC(N(C)C)C4)cc3)c2n1 (centres unmarked) [Example 5, 6-Amino-2-butoxy-9-[4-(3-dimethylaminopyrrolidin-1-ylmethyl)benzyl]-7,9-dihydropurin-8-one] | 2.7 | – | –
CCCCNc1nc(N)c2[nH]c(=O)n(Cc3ccc(OCCCN(C)C)nc3)c2n1 [Example 116, 6-Amino-2-butylamino-9-[6-(3-dimethylaminopropoxy)pyridin-3-ylmethyl]-7,9-dihydropurin-8-one] | – | 19.6 | –
CCCCNc1nc(N)c2[nH]c(=O)n(Cc3ccc(CN4CCCCC4)cc3)c2n1 [Example 29, 6-Amino-2-butylamino-9-(4-piperidin-1-ylmethylbenzyl)-7,9-dihydropurin-8-one] | 7.6 | – | –
CCCCNc1nc(N)c2[nH]c(=O)n(Cc3cnc(OCCN(C)C)c(Cl)c3)c2n1 [Example 58, 6-Amino-2-butylamino-9-[5-chloro-6-(2-dimethylaminoethoxy)pyridin-3-ylmethyl]-7,9-dihydropurin-8-one] | 3.7 | – | –
COCCOc1nc(N)c2[nH]c(=O)n(Cc3cnc(OC4CCN(C)CC4)c(Cl)c3)c2n1 [Example 123, 6-Amino-9-[5-chloro-6-(1-methylpiperidin-4-yloxy)pyridin-3-ylmethyl]-2-(2-methoxyethoxy)-7,9-dihydropurin-8-one] | – | 6.9 | –
CCCCOc1nc(N)c2[nH]c(=O)n(Cc3ccc(CN4CCC(N(C)C)CC4)cc3)c2n1 [Example 4, 6-Amino-2-butoxy-9-[4-(4-dimethylaminopiperidin-1-ylmethyl)benzyl]-7,9-dihydropurin-8-one] | 2.5 | – | –
CCCCOc1nc(N)c2[nH]c(=O)n(Cc3ccc(N(C)CCN(C)C)nc3)c2n1 [Example 104, 6-Amino-2-butoxy-9-{6-[(2-dimethylaminoethyl)methylamino]pyridin-3-ylmethyl}-7,9-dihydropurin-8-one] | – | 5.3 | –
Nc1nc(OCCCC(F)(F)F)nc2c1[nH]c(=O)n2Cc1ccc(CN2CCOCC2)cc1 [Example 23, 6-Amino-9-(4-morpholin-4-ylmethylbenzyl)-2-(4,4,4-trifluorobutoxy)-7,9-dihydropurin-8-one] | 14.8 | – | –
COCCOc1nc(N)c2[nH]c(=O)n(Cc3cnc(N4CCN(C)CC4)c(Cl)c3)c2n1 [Example 105, 6-Amino-9-[5-chloro-6-(4-methylpiperazin-1-yl)pyridin-3-ylmethyl]-2-(2-methoxyethoxy)-7,9-dihydropurin-8-one] | – | 3.3 | –
CCCCOc1nc(N)c2[nH]c(=O)n(Cc3ccc(CN4CCCCC4)cc3)c2n1 [Example 2, 6-Amino-2-butoxy-9-(4-piperidin-1-ylmethylbenzyl)-7,9-dihydropurin-8-one] | 0.9 | – | –
CCCCOc1nc(N)c2[nH]c(=O)n(Cc3ccc(CN4CCN(C)CC4)cc3)c2n1 [Example 3, 6-Amino-2-butoxy-9-[4-(4-methylpiperazin-1-ylmethyl)benzyl]-7,9-dihydropurin-8-one] | 1.8 | – | –
CCCCNc1nc(N)c2[nH]c(=O)n(Cc3ccc(OCCN(C)C)nc3)c2n1 [Example 54, 6-Amino-2-butylamino-9-[6-(2-dimethylaminoethoxy)pyridin-3-ylmethyl]-7,9-dihydropurin-8-one] | – | – | Mouse IFN-α [1]: 53.6 ± 6.5^a) IU/mL
CCCCNc1nc(N)c2[nH]c(=O)n(Cc3cnc(N4CCN(C)CC4)c(Cl)c3)c2n1 [Example 56, 6-Amino-2-butylamino-9-[5-chloro-6-(4-methylpiperazin-1-yl)pyridin-3-ylmethyl]-7,9-dihydropurin-8-one] | 1.3 | – | –
